US12055546B2, “Fluorescent probe for detecting carboxypeptidase activity” (THE UNIVERSITY OF TOKYO, priority 2018, dated 2024)

Legend:
[1] = target: T1, PSMA (Homo sapiens, UniProt Q04609); experiment: Reactivity with PSMA purified enzyme (Example 6); type: biochemical
[2] = tested on: LNCaP cells (high PSMA expression); experiment: Live cell imaging, LNCaP cells (confocal microscope); type: cell-based
Experimental: (§1) A solution (final concentration: 10 μM) of 2Me5GluAF-TG (Compound 32) diluted with HBSS(+) was added to LNCaP cells (high PSMA expression) or PC3 cells (PSMA non-expression), and a fluorescence image was taken by a confocal microscope every 1 hour under the following conditions while culturing at 37° C. and 5% CO2.
A probe (2Me5GluAF-TG) and an inhibitor were added, and after culturing at 37° C. and 5% CO2 for 15 hours, a fluorescence image was taken with a confocal microscope. Probe concentration: 10 μM, inhibitor (2-PMPA) concentration: 10 μM, Ex/em: 490/500-600 nm, Scale bar: 50 μm.
Ten intracellular regions and ten extracellular regions were each surrounded by ROI, and an average value of the fluorescence intensity was calculated. FIG. 18a illustrates the taken fluorescence image, and FIG. 18b illustrates the average value of the fluorescence intensity with and without addition of the inhibitor.

[3] = tested on: PC3 cell lysate (PSMA non-expressing prostate cancer cell); experiment: Cell lysate assay, PC3; type: biochemical; details: probe 10 μM, 37° C.
Experimental: (§2) A PSMA specific inhibitor 2-PMPA (10 μM) was added to one of LNCaP cell lysate samples at the same time, and measurement was performed. • (2) The obtained fluorescence intensity of each lysate was normalized based on 0 minutes being set to 1, and then plot was performed with the incubation time on the horizontal axis.
(§3) A solution (20 μM, 100 μL) of 2Me5GluAF-TG (Compound 32) and a cell lysate (0.36 mg/mL, 100 μL) were reacted in TBS-T buffer at 37° C., and the fluorescence intensity was measured every 30 minutes. The measurement procedure is as described in Example 3.
(§4) Ex/em: 485/535 nm, n=3, probe final concentration: 10 μM, inhibitor (2-PMPA) concentration: 10 μM

[4] = tested on: PC3 cells (PSMA non-expression); experiment: Live cell imaging, PC3 cells (confocal microscope); type: cell-based; details: probe 10 μM in HBSS(+), image every 1 hour
Experimental: as §1

[5] = target: T1, PSMA; experiment: LC-UV/MS analysis of PSMA reaction solution; type: biochemical; details: 10 hours
Experimental: A solution, prepared after recombinant human PSMA and 2Me5GluAF-TG (Compound 32) were reacted for 10 hours, and 2Me5GluAF-TG and 2MeTG synthesized as preparations were subjected to LC-UV/MS analysis.
Probe concentration: 10 μM (2Me5GluAF-TG, enzyme reaction solution), 2 μM (2MeTG). The results are illustrated in FIG. 13 and FIG. 14.

[6] = tested on: human prostate cancer surgical specimen; experiment: Study using human prostate cancer surgical specimen; details: 2.50 μM probe solution in 1×TBS, 40° C., up to 4 hours
Experimental: • 1. Wash surgical specimen with 1×TBS buffer • 2. Add dropwise 2.50 μM of 2Me5GluAF-TG solution (diluted with 1×TBS buffer) so that the whole specimen is immersed. • 3. While heating to 40° C. with a heater, take a fluorescence image by Maestro for up to 4 hours • 4. Judge from the fluorescence image taken 4 hours after immersion, select and cut out several sites showing bright fluorescence and several sites showing no fluorescence, and fix with a 10% formalin solution • 5. Request a pathologist to perform HE staining/PSMA immunostaining on each site and evaluate a rate of cancer sites and PSMA expression
The results of using four types of specimens are illustrated in FIG. 21 to FIG. 24. FIG. 25 illustrates a result obtained by changing the above protocol (changing a method so that a surface is covered with gauze soaked in a probe solution, temporarily removing the gauze, and taking a fluorescence image). • (a) of each figure illustrates a photograph before immersion of the surgical specimen in a Me5GluAF-TG solution and a photograph taken 4 hours after the immersion (the right side is a fluorescence image). The graph on the left side of (b) illustrates a change in fluorescence intensity at a selected site of the surgical specimen from the immersion in the Me5GluAF-TG solution to 4 hours after the immersion. […]

[7] = tested on: LNCaP cell lysate (PSMA expressing prostate cancer cell); experiment: Cell lysate assay, LNCaP; type: biochemical; details: probe 10 μM, 37° C.
Experimental: as §2, §3, §4

[8] = Absorption/fluorescence spectrum measurement; type: physicochemical
Experimental: The absorption spectrum was measured using UV-2450 (SIMADZU), and the fluorescence spectrum was measured using F-7000 (HITACHI).
FIG. 9 and FIG. 10 illustrate the results of the absorption/fluorescence spectrum measurement of 2Me5GluAF-TG (Compound 32). […] The absorption spectrum was measured using UV-2450 (SIMADZU), and the fluorescence spectrum was measured using F-7000 (HITACHI).

[9] = tested on: LNCaP cells; experiment: LC-UV/MS analysis of extracellular fluid after LNCaP imaging; type: cell-based
Experimental: After imaging of LNCaP cells using 2Me5GluAF-TG, a collected extracellular fluid, and 2Me5GluAF-TG and 2MeTG synthesized as preparations were subjected to the LC-MS analysis under the following conditions.
Probe concentration: 10 μM (2Me5GluAF-TG, extracellular fluid), 2 μM (2MeTG).

T1 sequence (Q04609 whole entry): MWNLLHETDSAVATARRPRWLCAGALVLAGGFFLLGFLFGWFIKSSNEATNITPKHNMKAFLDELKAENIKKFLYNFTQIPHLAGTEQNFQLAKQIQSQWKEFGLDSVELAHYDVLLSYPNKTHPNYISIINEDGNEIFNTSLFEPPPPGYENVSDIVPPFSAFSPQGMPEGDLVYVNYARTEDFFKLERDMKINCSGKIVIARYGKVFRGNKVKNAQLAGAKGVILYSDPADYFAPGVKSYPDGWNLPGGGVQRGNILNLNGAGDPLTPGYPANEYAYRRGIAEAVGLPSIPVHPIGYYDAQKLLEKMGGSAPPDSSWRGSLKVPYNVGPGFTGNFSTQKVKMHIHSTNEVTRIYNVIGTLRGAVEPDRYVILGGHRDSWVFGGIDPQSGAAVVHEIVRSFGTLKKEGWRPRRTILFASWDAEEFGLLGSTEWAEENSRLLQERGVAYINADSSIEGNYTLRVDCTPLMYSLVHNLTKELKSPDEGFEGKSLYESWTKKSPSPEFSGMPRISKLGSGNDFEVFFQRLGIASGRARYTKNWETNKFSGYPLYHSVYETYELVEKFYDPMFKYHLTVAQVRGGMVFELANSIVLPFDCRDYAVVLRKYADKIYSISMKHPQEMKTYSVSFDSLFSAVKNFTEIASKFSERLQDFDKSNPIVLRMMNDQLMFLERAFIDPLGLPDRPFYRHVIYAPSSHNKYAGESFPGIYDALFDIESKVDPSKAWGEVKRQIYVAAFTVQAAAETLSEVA

Cc1ccc(/N=N/C(=O)N[C@@H](CCC(=O)O)C(=O)O)cc1-c1c2ccc(=O)cc-2oc2cc(O)ccc12 [Compound 2Me5GluAF-TG]
Increase in fluorescence with PSMA ([1]; 10 μM probe, 0.44 μg PSMA, 1×TBS, 37° C.): the increase in fluorescence due to the enzymatic reaction was observed
Increase in fluorescence with PSMA in presence of inhibitor ([1]; inhibitor 2-PMPA 10 μM): No increase in fluorescence was observed
Fluorescence image intensity in LNCaP cells ([2]; probe 10 μM in HBSS(+), image every 1 hour): the fluorescence intensity of the fluorescence image increased with the passage of time
Fluorescence image intensity with inhibitor ([2]; probe 10 μM, 2-PMPA 10 μM, 15 hours): the intensity of the fluorescence image does not increase
Average fluorescence intensity inside versus outside the cell ([2]; probe 10 μM, no inhibitor, 15 hours): the average value of the fluorescence intensity inside the cell is much higher than that outside the cell
Increase in fluorescence in PC3 cell lysate [3]: almost no increase in fluorescence was observed
Fluorescence image in PC3 cells [4]: no change was observed in the fluorescence image
Stability of the probe (LC-UV/MS) ([5]; inhibitor (2-PMPA) added or absence of PSMA): stable
Products of the reaction with PSMA (LC-UV/MS) ([5]; probe 10 μM, in the presence of PSMA): 2MeTG and 2Me5OH-TG exhibiting fluorescence in the presence of PSMA were produced
Relation of fluorescence increase to cancer site / PSMA expression [6]: a rough correlation between the increase in fluorescence intensity and the presence or absence of the cancer site or a PSMA expression level
Increase in fluorescence in LNCaP cell lysate with inhibitor ([7]; 2-PMPA 10 μM): almost no increase in fluorescence was observed
Increase in fluorescence in LNCaP cell lysate [7]: a significant increase in fluorescence was observed
Φfl ([8]; 0.2M phosphate buffer (pH 7.4)): 0.002
λabs (nm) ([8]; Table 3): 495 nm
λem (nm) ([8]; Table 3): 516 nm
Fluorescence under physiological conditions ([8]; as compared to fluorescein): almost no fluorescencence
Product in extracellular fluid (LC-MS) ([9]; absence of the inhibitor (2-PMPA)): production of fluorescent 2MeTG was confirmed
Stability of the probe in extracellular fluid (LC-MS) ([9]; inhibitor added): stable
